ChEMBL document CHEMBL2311319, “Discovery of novel 1,4-dihydropyridine-based PDE4 inhibitors” (Bioorg Med Chem Lett, 2013)

Tests used:
[1] = molecular target: 3',5'-cyclic-AMP phosphodiesterase 4D (Homo sapiens, UniProt Q08499); experiment: Inhibition of recombinant PDE4D2 (unknown origin) expressed in Sf9 cells pre-incubated with compound for 15 mins before incubation with cAMP substrate for 1 hr
[2] = molecular target: T1, 3',5'-cyclic-AMP phosphodiesterase 4B (Homo sapiens, UniProt Q07343); experiment: Inhibition of recombinant PDE4B1 (unknown origin) expressed in Sf9 cells at 30 uM pre-incubated with compound for 15 mins before incubation with cAMP substrate for 1 hr
T1 sequence (Q07343 whole entry): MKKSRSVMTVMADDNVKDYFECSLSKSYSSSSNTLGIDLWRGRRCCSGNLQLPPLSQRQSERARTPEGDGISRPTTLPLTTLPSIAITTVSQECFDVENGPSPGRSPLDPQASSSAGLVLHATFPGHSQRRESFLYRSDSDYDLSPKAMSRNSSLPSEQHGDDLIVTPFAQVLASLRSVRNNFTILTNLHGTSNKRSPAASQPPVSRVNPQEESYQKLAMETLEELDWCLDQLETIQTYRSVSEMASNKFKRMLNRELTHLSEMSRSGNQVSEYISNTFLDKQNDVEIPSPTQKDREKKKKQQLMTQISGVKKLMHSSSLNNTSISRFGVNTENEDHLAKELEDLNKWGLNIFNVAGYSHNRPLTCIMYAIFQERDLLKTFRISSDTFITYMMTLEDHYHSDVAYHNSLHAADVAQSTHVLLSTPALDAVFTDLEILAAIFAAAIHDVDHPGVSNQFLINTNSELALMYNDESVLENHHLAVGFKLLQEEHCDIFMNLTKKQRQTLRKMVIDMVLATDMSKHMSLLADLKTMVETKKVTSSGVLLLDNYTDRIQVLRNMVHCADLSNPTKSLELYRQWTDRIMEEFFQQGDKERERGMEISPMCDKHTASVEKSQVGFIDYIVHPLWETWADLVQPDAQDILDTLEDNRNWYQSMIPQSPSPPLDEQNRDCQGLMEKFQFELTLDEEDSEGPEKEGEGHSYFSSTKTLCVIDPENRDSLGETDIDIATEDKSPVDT

[3] = molecular target: T1, 3',5'-cyclic-AMP phosphodiesterase 4B; experiment: Inhibition of recombinant PDE4B1 (unknown origin) expressed in Sf9 cells pre-incubated with compound for 15 mins before incubation with cAMP substrate for 1 hr
RAW264.7 = experiment: Inhibition of LPS-induced TNFalpha production in mouse RAW264.7 cells pre-incubated with compound for 30 mins before LPS challenge by ELISA; format: functional, cell-based

Chain of 3',5'-cyclic-AMP phosphodiesterase 4D (Q08499 whole entry): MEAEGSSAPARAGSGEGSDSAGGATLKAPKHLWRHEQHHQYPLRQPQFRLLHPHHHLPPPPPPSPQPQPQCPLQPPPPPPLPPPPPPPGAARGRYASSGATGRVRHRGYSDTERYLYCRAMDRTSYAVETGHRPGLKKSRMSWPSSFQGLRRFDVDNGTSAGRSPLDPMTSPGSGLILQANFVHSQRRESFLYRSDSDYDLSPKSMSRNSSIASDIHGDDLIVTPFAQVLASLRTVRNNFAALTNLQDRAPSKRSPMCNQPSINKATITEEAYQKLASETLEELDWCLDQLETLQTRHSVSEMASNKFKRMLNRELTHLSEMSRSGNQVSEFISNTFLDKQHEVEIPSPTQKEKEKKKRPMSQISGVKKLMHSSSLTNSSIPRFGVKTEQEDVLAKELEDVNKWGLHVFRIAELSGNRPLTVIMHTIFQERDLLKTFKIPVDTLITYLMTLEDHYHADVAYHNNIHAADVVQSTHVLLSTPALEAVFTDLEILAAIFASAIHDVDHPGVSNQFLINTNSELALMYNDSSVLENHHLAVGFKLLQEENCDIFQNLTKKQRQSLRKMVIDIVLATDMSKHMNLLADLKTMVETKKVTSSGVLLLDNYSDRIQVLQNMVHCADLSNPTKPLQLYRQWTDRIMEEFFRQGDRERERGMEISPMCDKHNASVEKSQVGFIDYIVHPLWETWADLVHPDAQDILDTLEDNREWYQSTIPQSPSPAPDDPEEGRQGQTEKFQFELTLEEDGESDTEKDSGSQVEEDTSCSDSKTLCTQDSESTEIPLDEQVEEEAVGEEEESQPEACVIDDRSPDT

| Structure (SMILES) | inhibition [2] | also measured |
| --- | --- | --- |
| CCOC(=O)C1=CN(Cc2ccc(OC)c(OC)c2)C=C(C(=O)OCC)C1c1ccc(Cl)cc1 | 80% | IC50 [1]: 2.78 µM; IC50 [3]: 3.71 µM |
| CCOC(=O)C1=CN(Cc2ccc(OC)c(OC)c2)C=C(C(=O)OCC)C1c1cccc([N+](=O)[O-])c1 | 88% | IC50 [1]: 2.89 µM; IC50 [3]: 1.57 µM |
| CCOC(=O)C1=CN(CC2CCCCC2)C=C(C(=O)OCC)C1c1ccc(Cl)cc1 | 28% | – |
| CCOC(=O)C1=CN(Cc2ccc(OC)c(OC)c2)C=C(C(=O)OCC)C1c1cccc2ccccc12 | 75% | – |
| CCOC(=O)C1=CN(Cc2ccccc2Cl)C=C(C(=O)OCC)C1c1ccccc1 | 33% | – |
| CCOC(=O)C1=CN(Cc2ccc3c(c2)OCO3)C=C(C(=O)OCC)C1c1ccc(O)cc1 | 72% | – |
| CCOC(=O)C1=CN(Cc2ccccc2Cl)C=C(C(=O)OCC)C1c1ccc(OC)cc1 | 58% | – |
| CCOC(=O)C1=CN(Cc2ccccc2OC)C=C(C(=O)OCC)C1C1CC1 | 48% | – |
| CCOC(=O)C1=CN(Cc2ccc(OC)c(OC)c2)C=C(C(=O)OCC)C1Cc1ccccc1 | 79% | – |
| CCOC(=O)C1=CN(c2ccc(OC)cc2)C=C(C(=O)OCC)C1c1ccc(Cl)cc1 | 33% | – |
| CCOC(=O)C1=CN(c2ccc(Cl)cc2)C=C(C(=O)OCC)C1Cc1ccccc1 | 57.5% | – |
| CCCCCCCCN1C=C(C(=O)OCC)C(c2ccc(OC)cc2)C(C(=O)OCC)=C1 | 25% | – |
| CCOC(=O)C1=CN(Cc2ccc(Cl)cc2)C=C(C(=O)OCC)C1c1ccc(Cl)cc1 | 15% | – |
| CCOC(=O)C1=CN(Cc2ccc3c(c2)OCO3)C=C(C(=O)OCC)C1c1ccc(OC)cc1 | 42% | – |
| CCOC(=O)C1=CN(Cc2ccc(C(F)(F)F)cc2)C=C(C(=O)OCC)C1c1ccc(OC)cc1 | 21% | – |
| C=CCN1C=C(C(=O)OCC)C(c2ccc(O)cc2)C(C(=O)OCC)=C1 | 51.5% | – |
| CCOC(=O)C1=CN(Cc2ccc(OC)c(OC)c2)C=C(C(=O)OCC)C1c1cccc(Cl)c1 | 78% | – |
| CCOC(=O)C1=CN(Cc2ccc(OC)c(OC)c2)C=C(C(=O)OCC)C1c1c[nH]c2ccccc12 | 95% | IC50 [1]: 0.65 µM; IC50 (RAW264.7): 3.2 µM; IC50 [3]: 0.54 µM |
| CCOC(=O)C1=CN(Cc2ccc(C(F)(F)F)cc2)C=C(C(=O)OCC)C1c1ccc(O)cc1 | 35% | – |
| CCOC(=O)C1=CN(Cc2ccc(OC)cc2)C=C(C(=O)OCC)C1c1ccc(Cl)cc1 | 23% | – |
| C=CCN1C=C(C(=O)OCC)C(c2ccc(Cl)cc2)C(C(=O)OCC)=C1 | 49.5% | – |
| CCCCCCCCCCCCCCCCN1C=C(C(=O)OCC)C(c2ccc(OC)cc2)C(C(=O)OCC)=C1 | 17% | – |
| CCOC(=O)C1=CN(Cc2cccc(Cl)c2)C=C(C(=O)OCC)C1Cc1ccccc1 | 31% | – |
| CCOC(=O)C1=CN(Cc2ccc(Cl)cc2)C=C(C(=O)OCC)C1c1cccc(F)c1 | 8% | – |
| CCOC(=O)C1=CN(Cc2ccccc2Cl)C=C(C(=O)OCC)C1c1ccc(O)cc1 | 49% | – |
| CCOC(=O)C1=CN(Cc2ccc(OC)cc2)C=C(C(=O)OCC)C1c1cccc(F)c1 | 28% | – |
| CCOC(=O)C1=CN(c2ccccc2)C=C(C(=O)OCC)C1c1ccc(Cl)cc1 | 30.5% | – |
| CCOC(=O)C1=CN(c2ccc(Cl)cc2)C=C(C(=O)OCC)C1c1ccc(Cl)cc1 | 23% | – |
| CCOC(=O)C1=CN(Cc2ccc(OC)cc2)C=C(C(=O)OCC)C1c1ccc([N+](=O)[O-])cc1 | 38% | – |
